This is an account of results in ChEMBL document CHEMBL1201862, “PubChem BioAssay data set” (2004).

Activity calls are given as the source filed them.

The target of assay [1] is NAD-dependent protein deacylase sirtuin-5, mitochondrial (Homo sapiens, UniProt Q9NXA8). Kind of assay: sirtuin-5 deacylation blockers, concentration series – biochemical, fluorescence imaging, cherry-pick, set 5, dose response (AID 720591).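 Further: desuccinylation of succinyl peptide AMC substrate read as fluorescence after trypsin release; potency of inhibitors that lower fluorescence and may act on trypsin instead.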
NAD-dependent protein deacylase sirtuin-5, mitochondrial, sequence (Q9NXA8 whole entry): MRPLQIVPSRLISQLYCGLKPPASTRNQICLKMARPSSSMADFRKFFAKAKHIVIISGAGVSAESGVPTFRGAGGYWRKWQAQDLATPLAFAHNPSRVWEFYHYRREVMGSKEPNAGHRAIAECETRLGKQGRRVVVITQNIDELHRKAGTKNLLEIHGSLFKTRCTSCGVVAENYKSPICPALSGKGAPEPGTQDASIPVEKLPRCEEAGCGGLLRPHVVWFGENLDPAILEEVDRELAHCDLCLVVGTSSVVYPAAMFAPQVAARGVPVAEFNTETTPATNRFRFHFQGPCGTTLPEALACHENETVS
Assay [2] deals with Kallikrein-7 (Homo sapiens, UniProt P49862). Kind of assay: Fluorescence Intensity-based biochemical primary high throughput dose response assay to identify activators of kallikrein-7 (K7) zymogen.
Kallikrein-7, sequence (P49862 whole entry): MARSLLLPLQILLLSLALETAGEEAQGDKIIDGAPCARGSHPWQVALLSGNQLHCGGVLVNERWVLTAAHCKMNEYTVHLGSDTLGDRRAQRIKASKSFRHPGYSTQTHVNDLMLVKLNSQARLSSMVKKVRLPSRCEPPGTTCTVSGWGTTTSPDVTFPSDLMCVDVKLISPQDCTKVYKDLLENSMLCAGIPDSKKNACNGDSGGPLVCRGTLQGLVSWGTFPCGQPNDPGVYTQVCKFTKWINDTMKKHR
The nature of assay [3]: Trypanosoma cruzi growth suppression in host cells – NIH3T3 host cells, beta-gal luminescence, confirmation (AID 2044).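 Further: intracellular parasites grown in NIH/3T3 mouse fibroblasts as host cells; luminescent beta-galactosidase reporter signal from transgenic T. cruzi replicating inside host cells; inhibitors lower the luminescence signal.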 The class given is functional, cell-based.
The nature of assay [4]: NIH3T3 cell viability loss – ATP luminescence, mouse fibroblasts, counter-screen, dose response (AID 2010).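 Further: cells exposed to compound for about 90 hours before reading.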 The class given is functional, cell-based.
Assay [5] concerns INS1. Description: INS-1E survival protection against cytokine death – cell-based, luminescence, retest, dose response (AID 449756).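 Further: cell death triggered by IL-1 beta plus TNF-alpha plus IFN-gamma mixture; protective hits raise ATP signal compared with cytokine alone wells.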 Format: functional. The conditions noted are these: Rattus norvegicus.
A short description of assay [6]: viability inhibitors of stage V gametocytes – luminescence, dose response (AID 1117278).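 Further: gametocytes exposed to compound for 24 hours.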 Format: functional, cell-based.
Assay [7] is described as follows: viability loss in human Jurkat cells – cell-based, luminescence, cytotoxicity control for P. falciparum gametocyte viability project, dose response (AID 1117277).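 Further: potency reflects loss of cellular ATP meaning fewer viable cells.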 The class given is functional.
Assay [8] in a line: cells.
Assay [9] has as its target Mitogen-activated protein kinase 10 (Homo sapiens, UniProt P53779). Kind of assay: Dose response biochemical screening assay for inhibitors of c-Jun N-Terminal Kinase 3 (JNK3). [Related pubchem assays: 746 ].
The target of assay [10] is RNA-editing ligase 1, mitochondrial (Trypanosoma brucei brucei, UniProt P86926). Description: inhibition of trypanosome RNA editing ligase – biochemical, fluorescence, Trypanosoma brucei, dose response (AID 1117295). Format: functional.
Assay [11] in a line: A549 cell cytotoxicity, dose response, cytotoxicity control, plate reader, cherry-pick, antagonist series (AID 743412). Format: functional, cell-based.
A short description of assay [12]: toxicity toward HepG2 liver cells – cell-based, plate reader, cherry-pick, antagonist series, cytotoxicity control, dose response (AID 743416). Format: functional.
A short description of assay [13]: blockers of bursicon-stimulated LGR2 cAMP reporter – cell-based, HEK293, CRE-luciferase reporter, cherry pick, set 2, dose response (AID 743343).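 Further: transfected cells were stimulated with diluted bursicon conditioned medium after compound addition.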 The class given is functional. (A reporter such as luciferase makes a cellular process visible.)
Assay [14] is described as follows: blockade of melanocortin 4 receptor signaling – cell-based, plate reader, cherry pick, counter-screen for LGR2 antagonist project, dose response (AID 743444).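 Further: transfected HEK 293 cells stimulated with alpha-MSH peptide; potency of inhibitors of the alpha-MSH evoked signal.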 The class given is functional. For orientation: The purpose of a counterscreen is to sort out artefacts and off-target activity.
For assay [15], the target named is Histone-lysine N-methyltransferase NSD2 (Homo sapiens, UniProt O96028). Format: biochemical.
Assay [16] addresses Paired box protein Pax-8 (Homo sapiens, UniProt Q06710). Kind of assay: PAX8 transcriptional activity inhibition in RMG-I – RMG-I cells, luciferase, cherry-pick, dose response (AID 687027).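 Further: luciferase reporter driven by Pax8 target thyroperoxidase promoter measured by SteadyGlo luminescence.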 Format: functional, cell-based.
Assay [17] in a line: inhibitors acting on PAX2 in cells – cell-based, plate reader, dry powder samples, selectivity assay for PAX8 inhibitor project, dose response (AID 743048).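 Further: HEK293 cells carrying a WT1 promoter luciferase reporter driven by expressed Pax2; potency is for inhibition of Pax2 driven reporter signal.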 Format: functional.
Assay [18] is described as follows: COV362 cell viability loss – plate reader, dry powder, SA12, cytotoxicity control for PAX8 inhibitor project, dose response (AID 743144). The class given is functional, cell-based.
Assay [19] in a line: PAX5 cellular inhibition readout – cell-based, plate reader, dry powder samples, selectivity assay for PAX8 inhibitor project, dose response (AID 743047).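 Further: HEK293 cells carrying a Pax5 driven CD19 promoter luciferase reporter; potency of inhibitors that lower reporter luminescence.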 The class given is functional.
A short description of assay [20]: OVCAR4 cell viability loss – plate reader, dry powder, SA11, cytotoxicity control for PAX8 inhibitor project, dose response (AID 743150). The class given is functional, cell-based. The conditions noted are these: OVCAR-4.
The nature of assay [21]: COV434 cell viability loss – plate reader, dry powder, SA7, cytotoxicity control for PAX8 inhibitor project, dose response (AID 743145). The class given is functional, cell-based.
Assay [22] can be described thus: PAX8-dependent cell viability loss – plate reader, dry powder, dose response (AID 743049). The class given is functional, cell-based.
A short description of assay [23]: growth inhibition of yeast DHODH-expressing 3D7 parasites – SYBR Green, dry powder samples, dose response (AID 1159570).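 Further: parasite growth measured after 72 hours of compound exposure.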 Format: functional, cell-based.
Assay [24] is described as follows: P. falciparum Dd2 growth inhibitors, dose response, SYBR Green, cherry-picked samples (AID 1159567). Format: functional, cell-based.
The nature of assay [25]: Dd2 malaria parasite growth inhibition potency – SYBR Green, dry powder samples, dose response (AID 1159566).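 Further: potency for growth inhibition with lower SYBR green DNA signal.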 Format: functional, cell-based.
Assay [26] in a line: growth inhibition of PfATP4-mutant resistant parasites – NITD609-resistant line, SYBR Green, dry powder, dose response (AID 1159571).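 Further: parasites synchronized at ring stage by sorbitol before testing.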 The class given is functional, cell-based.
Assay [27] has as its target T1, Zinc finger protein mex-5 (Caenorhabditis elegans, UniProt Q9XUB2).
T1 sequence (Q9XUB2 whole entry): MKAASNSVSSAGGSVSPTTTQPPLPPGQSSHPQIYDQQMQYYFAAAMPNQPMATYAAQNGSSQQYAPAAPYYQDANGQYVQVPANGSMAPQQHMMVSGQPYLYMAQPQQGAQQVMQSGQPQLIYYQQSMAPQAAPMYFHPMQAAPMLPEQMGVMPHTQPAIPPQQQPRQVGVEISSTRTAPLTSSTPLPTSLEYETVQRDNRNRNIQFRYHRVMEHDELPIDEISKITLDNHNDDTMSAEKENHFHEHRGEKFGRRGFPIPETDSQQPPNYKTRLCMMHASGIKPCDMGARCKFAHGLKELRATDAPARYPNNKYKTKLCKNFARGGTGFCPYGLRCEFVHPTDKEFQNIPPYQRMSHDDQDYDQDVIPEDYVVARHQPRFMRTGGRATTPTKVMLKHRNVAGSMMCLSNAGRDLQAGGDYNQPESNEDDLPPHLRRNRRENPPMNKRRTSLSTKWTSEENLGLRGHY
Description: potency of MEX-5 RNA-binding blockers – biochemical, C. elegans, fluorescence polarization, dose response (AID 1960). For orientation: Polarisation of emitted light reports the rotation of a fluorescent probe.

For assay [28], the target named is T2, Voltage-gated N-type calcium channel alpha-1B subunit/Amyloid beta A4 precursor protein-binding family A member 1 (Homo sapiens, UniProt Q00975+Q02410). Format: protein assay.
T2 sequence (Q00975 whole entry): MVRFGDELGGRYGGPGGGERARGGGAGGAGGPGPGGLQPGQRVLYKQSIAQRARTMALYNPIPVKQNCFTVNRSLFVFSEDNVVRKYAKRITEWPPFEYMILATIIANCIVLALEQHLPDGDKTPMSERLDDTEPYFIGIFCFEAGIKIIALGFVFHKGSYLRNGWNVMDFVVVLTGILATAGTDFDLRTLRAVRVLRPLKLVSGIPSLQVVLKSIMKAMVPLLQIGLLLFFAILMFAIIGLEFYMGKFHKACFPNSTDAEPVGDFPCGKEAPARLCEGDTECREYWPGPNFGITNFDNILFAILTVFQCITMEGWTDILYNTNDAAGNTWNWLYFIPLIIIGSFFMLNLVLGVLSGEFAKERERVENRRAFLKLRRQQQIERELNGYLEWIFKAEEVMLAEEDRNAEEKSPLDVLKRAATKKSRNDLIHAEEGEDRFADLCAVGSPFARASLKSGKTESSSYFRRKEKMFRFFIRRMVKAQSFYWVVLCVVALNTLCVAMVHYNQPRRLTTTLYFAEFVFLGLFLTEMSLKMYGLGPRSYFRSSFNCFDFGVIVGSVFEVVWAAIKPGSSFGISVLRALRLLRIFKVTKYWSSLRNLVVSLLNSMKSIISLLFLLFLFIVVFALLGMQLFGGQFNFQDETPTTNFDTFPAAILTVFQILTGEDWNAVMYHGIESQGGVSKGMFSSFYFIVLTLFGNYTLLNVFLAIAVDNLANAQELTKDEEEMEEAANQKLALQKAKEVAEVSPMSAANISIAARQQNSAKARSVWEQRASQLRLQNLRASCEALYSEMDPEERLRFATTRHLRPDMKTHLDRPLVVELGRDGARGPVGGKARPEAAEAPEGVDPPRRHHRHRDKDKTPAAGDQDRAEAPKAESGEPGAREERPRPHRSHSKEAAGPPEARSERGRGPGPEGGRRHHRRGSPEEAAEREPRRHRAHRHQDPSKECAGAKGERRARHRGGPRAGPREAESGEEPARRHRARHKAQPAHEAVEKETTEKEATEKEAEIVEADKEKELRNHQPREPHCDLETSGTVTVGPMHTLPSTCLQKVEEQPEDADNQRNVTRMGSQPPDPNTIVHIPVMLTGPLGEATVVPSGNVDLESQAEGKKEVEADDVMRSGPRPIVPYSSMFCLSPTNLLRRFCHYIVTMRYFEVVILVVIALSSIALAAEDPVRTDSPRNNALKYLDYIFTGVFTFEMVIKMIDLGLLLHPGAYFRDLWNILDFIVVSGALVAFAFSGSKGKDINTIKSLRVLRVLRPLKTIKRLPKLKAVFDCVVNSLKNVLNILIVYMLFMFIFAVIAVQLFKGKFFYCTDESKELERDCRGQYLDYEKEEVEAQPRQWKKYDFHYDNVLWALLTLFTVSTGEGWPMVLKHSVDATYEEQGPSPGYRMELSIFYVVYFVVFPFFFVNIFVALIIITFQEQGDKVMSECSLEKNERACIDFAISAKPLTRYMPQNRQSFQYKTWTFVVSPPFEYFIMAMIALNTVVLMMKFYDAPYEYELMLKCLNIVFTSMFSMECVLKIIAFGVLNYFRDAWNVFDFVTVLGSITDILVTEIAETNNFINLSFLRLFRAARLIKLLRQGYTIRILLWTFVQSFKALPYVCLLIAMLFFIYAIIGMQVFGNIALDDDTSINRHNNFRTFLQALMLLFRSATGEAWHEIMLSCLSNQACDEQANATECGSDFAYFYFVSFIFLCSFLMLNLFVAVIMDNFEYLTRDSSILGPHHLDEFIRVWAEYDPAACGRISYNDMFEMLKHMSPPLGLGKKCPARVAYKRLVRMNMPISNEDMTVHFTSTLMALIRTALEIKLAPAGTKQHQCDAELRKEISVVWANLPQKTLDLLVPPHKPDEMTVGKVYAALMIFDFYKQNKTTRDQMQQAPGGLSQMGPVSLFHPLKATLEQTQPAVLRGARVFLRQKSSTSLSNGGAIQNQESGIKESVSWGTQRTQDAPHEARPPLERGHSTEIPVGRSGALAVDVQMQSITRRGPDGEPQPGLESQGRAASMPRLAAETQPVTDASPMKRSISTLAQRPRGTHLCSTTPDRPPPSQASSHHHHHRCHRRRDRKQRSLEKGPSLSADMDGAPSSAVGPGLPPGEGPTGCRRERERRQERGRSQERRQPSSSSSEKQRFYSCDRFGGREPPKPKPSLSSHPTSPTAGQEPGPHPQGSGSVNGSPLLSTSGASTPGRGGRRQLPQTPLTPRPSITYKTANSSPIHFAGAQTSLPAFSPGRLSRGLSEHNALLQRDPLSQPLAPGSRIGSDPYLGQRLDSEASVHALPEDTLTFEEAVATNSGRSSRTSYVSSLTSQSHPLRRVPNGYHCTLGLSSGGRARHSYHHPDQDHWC
T2 sequence (Q02410 whole entry): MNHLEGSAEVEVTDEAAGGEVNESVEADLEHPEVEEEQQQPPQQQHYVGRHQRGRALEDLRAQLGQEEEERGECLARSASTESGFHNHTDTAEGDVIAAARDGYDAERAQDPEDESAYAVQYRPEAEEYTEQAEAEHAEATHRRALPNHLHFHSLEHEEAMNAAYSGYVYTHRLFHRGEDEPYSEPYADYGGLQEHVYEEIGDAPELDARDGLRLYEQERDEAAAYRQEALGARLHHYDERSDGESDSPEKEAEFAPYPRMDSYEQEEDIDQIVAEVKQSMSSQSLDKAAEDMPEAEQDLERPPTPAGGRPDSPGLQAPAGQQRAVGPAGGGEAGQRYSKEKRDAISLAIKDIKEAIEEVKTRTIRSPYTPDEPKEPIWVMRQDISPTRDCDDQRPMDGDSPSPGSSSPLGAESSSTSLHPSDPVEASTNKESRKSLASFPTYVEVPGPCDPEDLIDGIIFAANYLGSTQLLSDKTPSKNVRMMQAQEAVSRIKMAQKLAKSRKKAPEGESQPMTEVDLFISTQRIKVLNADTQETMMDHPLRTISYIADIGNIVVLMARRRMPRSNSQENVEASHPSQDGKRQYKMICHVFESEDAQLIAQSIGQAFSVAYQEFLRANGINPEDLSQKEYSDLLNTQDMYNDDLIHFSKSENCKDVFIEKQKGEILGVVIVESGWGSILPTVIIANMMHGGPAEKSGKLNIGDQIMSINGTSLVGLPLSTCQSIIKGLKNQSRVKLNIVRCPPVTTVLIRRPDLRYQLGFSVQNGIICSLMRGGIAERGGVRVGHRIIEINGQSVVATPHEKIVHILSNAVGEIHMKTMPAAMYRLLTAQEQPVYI
Assay [29] addresses T2, Voltage-gated N-type calcium channel alpha-1B subunit/Amyloid beta A4 precursor protein-binding family A member 1. The class given is protein assay. The source holds these as a separate data set.
In assay [30] the target is Albumin (Bos taurus, UniProt P02769). Kind of assay: Counterscreen for inhibitors of T-cell receptor (TCR)-CD3 interaction: Fluorescence-based biochemical high throughput dose response assay to identify inhibitors of T-cell receptor (TCR)-CD3 interaction using a TAMRA-labeled BSA probe. The class given is functional.
Albumin, sequence (P02769 whole entry): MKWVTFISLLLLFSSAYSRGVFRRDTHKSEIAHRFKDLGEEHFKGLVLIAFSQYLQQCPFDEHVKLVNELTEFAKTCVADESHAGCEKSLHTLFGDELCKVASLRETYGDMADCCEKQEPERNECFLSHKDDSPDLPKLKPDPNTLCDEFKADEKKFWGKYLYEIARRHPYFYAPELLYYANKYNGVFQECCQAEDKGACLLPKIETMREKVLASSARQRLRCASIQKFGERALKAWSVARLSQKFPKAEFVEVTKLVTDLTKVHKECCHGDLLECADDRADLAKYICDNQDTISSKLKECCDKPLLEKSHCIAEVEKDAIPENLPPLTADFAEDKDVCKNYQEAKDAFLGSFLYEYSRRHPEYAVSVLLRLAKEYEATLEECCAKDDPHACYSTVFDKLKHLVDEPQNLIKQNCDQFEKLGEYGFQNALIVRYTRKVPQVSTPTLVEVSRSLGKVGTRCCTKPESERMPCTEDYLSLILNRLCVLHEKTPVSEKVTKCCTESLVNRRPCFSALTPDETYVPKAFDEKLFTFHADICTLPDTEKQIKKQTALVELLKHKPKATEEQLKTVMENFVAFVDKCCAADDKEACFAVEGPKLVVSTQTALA

Mitogen-activated protein kinase 10, sequence (P53779 whole entry): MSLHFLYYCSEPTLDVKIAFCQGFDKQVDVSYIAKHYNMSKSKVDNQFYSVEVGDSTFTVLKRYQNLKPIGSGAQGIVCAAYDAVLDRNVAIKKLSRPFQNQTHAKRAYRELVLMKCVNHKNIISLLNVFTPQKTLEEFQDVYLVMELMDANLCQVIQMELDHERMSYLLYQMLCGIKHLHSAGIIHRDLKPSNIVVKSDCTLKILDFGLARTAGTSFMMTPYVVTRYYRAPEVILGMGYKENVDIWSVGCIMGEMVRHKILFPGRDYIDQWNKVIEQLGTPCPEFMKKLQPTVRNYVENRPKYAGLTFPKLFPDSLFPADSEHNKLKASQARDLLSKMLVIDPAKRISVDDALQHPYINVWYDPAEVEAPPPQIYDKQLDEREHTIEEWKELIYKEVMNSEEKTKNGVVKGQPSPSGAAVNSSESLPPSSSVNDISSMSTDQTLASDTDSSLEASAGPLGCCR

For the molecule `Cc1ccc2nc(N3C(=O)C(O)=C(C(=O)c4ccc(C)o4)C3c3ccc(O)cc3)sc2c1` (stereo not drawn), the AC50 in assay [1] is 15.1 µM (active).
As for `CCCCC[C@H]1CN(Cc2ccccc2)C(=O)[C@@H]1CC(=O)NCc1ccccc1`, the AC50 in assay [1] is 14.9 µM (active).
In the case of `C=C(C)Cn1c2ccc(NC(=O)NCCc3cccs3)cc2c(=O)n1C`, the EC50 in assay [2] is > 7.72 µM (active).
For the molecule `CCCOC(=O)c1ccc(-[n+]2c(-c3ccccc3)cc(-c3ccccc3)cc2-c2ccccc2)cc1.[O-][Cl+3]([O-])([O-])[O-]`, the EC50 in assay [3] is < 0.1 µM (active); in assay [4] it was > 60 µM (not active); in [8] it was 0.1 µM (active). The AC50 in assay [5] was 1.82 µM (active). Moreover, the IC50 was > 109 µM (inactive) in [6] and 6.87 µM (active) in [7].
In the case of `COC(=O)c1c(-c2cccs2)csc1NC(=O)CN1CCOCC1`, the IC50 in [9] is on record as 55.7 µM (not active).
`O=C1NC(=O)c2c(NC(=O)C3CCCO3)cccc21` (stereo not drawn): the IC50 in assay [9] is on record as 56.2 µM (not active).
With `CN1CCN(C(=O)c2cc3nc(-c4ccco4)cc(C(F)(F)F)n3n2)CC1`, the EC50 in [2] was 11.3 µM (inactive).
For the molecule `Cc1ccc(C(C)C)c(OCCNCCc2ccccc2)c1`, in [10], the IC50 is > 96.6 µM (inactive).
Regarding `COc1ccc2nc(-c3ccccn3)ccc2c1`, the AC50 is > 52 µM (inactive) in assay [11], 29.3 µM (active) in [12], 9.32 µM (active) in [13] and 13.4 µM (active) in [14].
For the molecule `CCOc1ccc2[nH]c3c(NCCN(CC)CC)ncnc3c2c1`, in assay [15], the AC50 is 3.43 µM (active).
In the case of `CCCC#Cc1ccc([C@H]2[C@@H](CO)N(C(=O)C3CCCCC3)[C@H]2C#N)cc1`, the AC50 in assay [16] is 1.55 µM (active); in [17], 26.7 µM (active); in assay [18], 0.0864 nM (active); in [19] it was 19.2 µM (active); in assay [20] it was 22.8 µM (active); in assay [21], 0.000367 µM (active). Also, the AC50 was 12.2 µM (active) in assay [22]; 0.996 µM (active) in assay [23]; 1.42 µM (active) in [24]; 0.541 µM (active) in [25]; 2.55 µM (active) in assay [26].
With `COc1ccc(C(=O)Nc2nnc(CC(=O)N/N=C/c3ccc(O)cc3O)s2)cc1`, the EC50 in assay [27] was > 300 µM (not active). Further, the IC50 in [28] was 2.33 µM (active); in assay [29], 19.8 µM (active); in assay [30], > 94.1 µM (inactive).

In general, AC50 refers to the midpoint of the concentration-response curve, whichever way the signal moves. Usually EC50 stands for the midpoint of the concentration-response curve. One may read the IC50 as the midpoint of a concentration-inhibition curve.
